Measurements as given in PubChem BioAssay (NCI).
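All cell lines were grown in 96-well plates and treated with compound for 48 hours. GI50 is the concentration that inhibits growth by half. TGI: total growth inhibition.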

Assays:
Experiment in all cases: NCI-60 cell line screen, 48 h
786-0 renal = test system: 786-0 renal
A498 renal = test system: A498 renal
A549 NSCLC = test system: A549 NSCLC
ACHN renal = test system: ACHN renal
BT-549 breast = test system: BT-549 breast
CAKI-1 renal = test system: CAKI-1 renal
CCRF-CEM leukemia = test system: CCRF-CEM leukemia
COLO 205 colon = test system: COLO 205 colon
DU-145 prostate = test system: DU-145 prostate
EKVX NSCLC = test system: EKVX NSCLC
HCC-2998 colon = test system: HCC-2998 colon
HCT-116 colon = test system: HCT-116 colon
HCT-15 colon = test system: HCT-15 colon
HL-60(TB) leukemia = test system: HL-60(TB) leukemia
HOP-62 NSCLC = test system: HOP-62 NSCLC
HOP-92 NSCLC = test system: HOP-92 NSCLC
HS 578T breast = test system: HS 578T breast
HT29 colon = test system: HT29 colon
IGROV1 ovarian = test system: IGROV1 ovarian
K-562 leukemia = test system: K-562 leukemia
KM12 colon = test system: KM12 colon
LOX IMVI melanoma = test system: LOX IMVI melanoma
M14 melanoma = test system: M14 melanoma
MALME-3M melanoma = test system: MALME-3M melanoma
MCF7 breast = test system: MCF7 breast
MDA-MB-231 breast = test system: MDA-MB-231 breast
MDA-MB-435 = test system: MDA-MB-435
MOLT-4 leukemia = test system: MOLT-4 leukemia
NCI-H226 lung = test system: NCI-H226 lung
NCI-H23 lung = test system: NCI-H23 lung
NCI-H460 lung = test system: NCI-H460 lung
NCI-H522 lung = test system: NCI-H522 lung
NCI/ADR-RES ovarian = test system: NCI/ADR-RES ovarian
OVCAR-3 ovarian = test system: OVCAR-3 ovarian
OVCAR-4 ovarian = test system: OVCAR-4 ovarian
OVCAR-5 ovarian = test system: OVCAR-5 ovarian
OVCAR-8 ovarian = test system: OVCAR-8 ovarian
PC-3 prostate = test system: PC-3 prostate
RPMI-8226 leukemia = test system: RPMI-8226 leukemia
RXF 393 renal = test system: RXF 393 renal
SF-268 CNS = test system: SF-268 CNS
SF-295 CNS = test system: SF-295 CNS
SK-MEL-28 melanoma = test system: SK-MEL-28 melanoma
SK-MEL-5 melanoma = test system: SK-MEL-5 melanoma
SK-OV-3 ovarian = test system: SK-OV-3 ovarian
SN12C renal = test system: SN12C renal
SNB-19 CNS = test system: SNB-19 CNS
SNB-75 CNS = test system: SNB-75 CNS
SR leukemia = test system: SR leukemia
SW-620 colon = test system: SW-620 colon
T-47D breast = test system: T-47D breast
TK-10 renal = test system: TK-10 renal
U251 CNS = test system: U251 CNS
UACC-257 melanoma = test system: UACC-257 melanoma
UACC-62 melanoma = test system: UACC-62 melanoma
UO-31 renal = test system: UO-31 renal
SF-539 CNS = test system: SF-539 CNS
SK-MEL-2 melanoma = test system: SK-MEL-2 melanoma

## COc1ccc([C@@H]2[C@@H](O)C(=O)N2c2cc(OC)c(OC)c(OC)c2)cc1F
786-0 renal
  GI50: 0.0419 µM
  TGI: > 100 µM
A498 renal
  GI50: 22.4 µM
  TGI: > 100 µM
A549 NSCLC
  GI50: 0.0448 µM
  TGI: > 100 µM
ACHN renal
  GI50: 0.0568 µM
  TGI: > 100 µM
BT-549 breast
  GI50: 0.0294 µM
  TGI: 0.203 µM
CAKI-1 renal
  GI50: 0.0463 µM
  TGI: > 61.6 µM
CCRF-CEM leukemia
  GI50: 0.0426 µM
  TGI: > 100 µM
COLO 205 colon
  GI50: 0.0303 µM
  TGI: 0.0933 µM
DU-145 prostate
  GI50: 0.0395 µM
  TGI: > 100 µM
EKVX NSCLC
  GI50: > 100 µM
  TGI: > 100 µM
HCC-2998 colon
  GI50: 0.0485 µM
  TGI: > 100 µM
HCT-116 colon
  GI50: 0.0339 µM
  TGI: > 100 µM
HCT-15 colon
  GI50: 0.0359 µM
  TGI: > 100 µM
HL-60(TB) leukemia
  GI50: 0.0329 µM
  TGI: 0.207 µM
HOP-62 NSCLC
  GI50: 0.0582 µM
  TGI: > 100 µM
HOP-92 NSCLC
  TGI: > 100 µM
HS 578T breast
  GI50: 0.0576 µM
  TGI: > 100 µM
HT29 colon
  GI50: 0.0305 µM
  TGI: 0.11 µM
IGROV1 ovarian
  GI50: 0.0515 µM
  TGI: > 100 µM
K-562 leukemia
  GI50: 0.0381 µM
  TGI: > 100 µM
KM12 colon
  GI50: 0.0368 µM
  TGI: > 100 µM
LOX IMVI melanoma
  GI50: 0.0381 µM
  TGI: > 100 µM
M14 melanoma
  GI50: 0.035 µM
  TGI: > 100 µM
MALME-3M melanoma
  GI50: 0.0791 µM
  TGI: > 100 µM
MCF7 breast
  GI50: 0.0352 µM
  TGI: > 100 µM
MDA-MB-231 breast
  GI50: 0.0491 µM
  TGI: > 100 µM
MDA-MB-435
  GI50: 0.0231 µM
  TGI: 0.0575 µM
MOLT-4 leukemia
  GI50: 0.0458 µM
  TGI: > 100 µM
NCI-H226 lung
  GI50: 0.0345 µM
  TGI: 0.432 µM
NCI-H23 lung
  GI50: 0.0525 µM
  TGI: > 100 µM
NCI-H460 lung
  GI50: 0.0344 µM
  TGI: > 100 µM
NCI-H522 lung
  GI50: 0.0199 µM
  TGI: 0.0537 µM
NCI/ADR-RES ovarian
  GI50: 0.0562 µM
  TGI: > 100 µM
OVCAR-3 ovarian
  GI50: 0.0299 µM
  TGI: 0.114 µM
OVCAR-4 ovarian
  GI50: 0.686 µM
  TGI: > 100 µM
OVCAR-5 ovarian
  GI50: 0.0496 µM
  TGI: > 100 µM
OVCAR-8 ovarian
  GI50: 0.0407 µM
  TGI: > 100 µM
PC-3 prostate
  GI50: 0.0546 µM
  TGI: > 100 µM
RPMI-8226 leukemia
  GI50: 0.0415 µM
  TGI: > 21.8 µM
RXF 393 renal
  GI50: 0.0305 µM
SF-268 CNS
  GI50: 0.0984 µM
  TGI: > 100 µM
SF-295 CNS
  GI50: 0.0362 µM
  TGI: > 100 µM
SK-MEL-28 melanoma
  GI50: 0.792 µM
  TGI: > 100 µM
SK-MEL-5 melanoma
  GI50: 0.0351 µM
  TGI: 0.175 µM
SK-OV-3 ovarian
  GI50: 0.0559 µM
  TGI: > 84.6 µM
SN12C renal
  GI50: 0.0504 µM
  TGI: > 100 µM
SNB-19 CNS
  GI50: 0.0799 µM
  TGI: > 100 µM
SNB-75 CNS
  GI50: 0.0456 µM
  TGI: > 100 µM
SR leukemia
  GI50: 0.0334 µM
  TGI: > 100 µM
SW-620 colon
  GI50: 0.0459 µM
  TGI: > 100 µM
T-47D breast
  GI50: > 55.2 µM
  TGI: > 100 µM
TK-10 renal
  GI50: > 100 µM
  TGI: > 100 µM
U251 CNS
  GI50: 0.036 µM
  TGI: > 100 µM
UACC-257 melanoma
  TGI: > 100 µM
UACC-62 melanoma
  GI50: 0.0487 µM
  TGI: > 100 µM
UO-31 renal
  GI50: 0.0728 µM
  TGI: > 100 µM

## CNC(=O)c1cc(N2CCc3cc(NC(=O)Nc4ccc(N5CCN(C)CC5)c(C(F)(F)F)c4)ccc32)ccn1
786-0 renal
  GI50: 2.86 µM
  TGI: 6.15 µM
A498 renal
  GI50: 7.9 µM
  TGI: > 25 µM
A549 NSCLC
  GI50: 3.94 µM
  TGI: 7.99 µM
ACHN renal
  GI50: 3.92 µM
  TGI: 7.31 µM
BT-549 breast
  GI50: 4.59 µM
  TGI: 14.4 µM
CAKI-1 renal
  GI50: 4.43 µM
  TGI: 9.07 µM
CCRF-CEM leukemia
  GI50: 1.17 µM
  TGI: 21.6 µM
COLO 205 colon
  GI50: 4.54 µM
  TGI: 8.71 µM
DU-145 prostate
  GI50: 4.22 µM
  TGI: 8.12 µM
EKVX NSCLC
  GI50: 3.95 µM
  TGI: 7.73 µM
HCC-2998 colon
  GI50: 4.13 µM
  TGI: 7.83 µM
HCT-116 colon
  GI50: 2.22 µM
  TGI: 5.35 µM
HCT-15 colon
  GI50: 0.879 µM
  TGI: 3.59 µM
HL-60(TB) leukemia
  GI50: 4.28 µM
  TGI: 11.9 µM
HOP-62 NSCLC
  GI50: 4.02 µM
  TGI: 8.34 µM
HOP-92 NSCLC
  GI50: 21.4 µM
  TGI: > 25 µM
HS 578T breast
  GI50: 3.49 µM
  TGI: 9.66 µM
HT29 colon
  GI50: 1.31 µM
  TGI: 4.91 µM
IGROV1 ovarian
  GI50: 4.6 µM
  TGI: 9.53 µM
K-562 leukemia
  GI50: 0.69 µM
  TGI: 2.19 µM
KM12 colon
  GI50: 0.862 µM
  TGI: 4.24 µM
LOX IMVI melanoma
  GI50: 3.44 µM
  TGI: 7.14 µM
M14 melanoma
  GI50: 3.34 µM
  TGI: 6.67 µM
MALME-3M melanoma
  GI50: 3.72 µM
  TGI: 7.52 µM
MCF7 breast
  GI50: 2.96 µM
  TGI: 7.39 µM
MDA-MB-231 breast
  GI50: 3.48 µM
  TGI: 7.83 µM
MDA-MB-435
  GI50: 3.99 µM
  TGI: 7.6 µM
MOLT-4 leukemia
  GI50: 1.18 µM
  TGI: 22 µM
NCI-H226 lung
  GI50: > 25 µM
  TGI: > 25 µM
NCI-H23 lung
  GI50: 3.73 µM
  TGI: 8.06 µM
NCI-H460 lung
  GI50: 3.78 µM
  TGI: 7.68 µM
NCI-H522 lung
  GI50: 4.87 µM
  TGI: 9.54 µM
NCI/ADR-RES ovarian
  GI50: 5.27 µM
  TGI: 12 µM
OVCAR-4 ovarian
  GI50: 3.96 µM
  TGI: 8.69 µM
OVCAR-5 ovarian
  GI50: 3.76 µM
  TGI: 8.4 µM
OVCAR-8 ovarian
  GI50: 4.48 µM
  TGI: 8.67 µM
PC-3 prostate
  GI50: 4.36 µM
  TGI: 15.3 µM
RPMI-8226 leukemia
  GI50: 0.742 µM
  TGI: 2.69 µM
RXF 393 renal
  GI50: 0.815 µM
  TGI: 3.15 µM
SF-268 CNS
  GI50: 4.08 µM
  TGI: 9.86 µM
SF-295 CNS
  GI50: 0.541 µM
  TGI: 1.33 µM
SF-539 CNS
  GI50: 1.03 µM
  TGI: 4.15 µM
SK-MEL-2 melanoma
  GI50: 4.56 µM
  TGI: 8.66 µM
SK-MEL-28 melanoma
  GI50: 3.7 µM
  TGI: 7.19 µM
SK-MEL-5 melanoma
  GI50: 4.32 µM
  TGI: 7.89 µM
SK-OV-3 ovarian
  GI50: > 25 µM
  TGI: > 25 µM
SN12C renal
  GI50: 4.05 µM
  TGI: 8.1 µM
SNB-19 CNS
  GI50: 3.6 µM
  TGI: 8.12 µM
SNB-75 CNS
  GI50: 2.55 µM
  TGI: 5.75 µM
SR leukemia
  GI50: 0.79 µM
  TGI: 4.43 µM
SW-620 colon
  GI50: 0.881 µM
  TGI: 2.87 µM
T-47D breast
  GI50: 4.14 µM
  TGI: 9.32 µM
TK-10 renal
  GI50: 5.42 µM
  TGI: 11.1 µM
U251 CNS
  GI50: 2.45 µM
  TGI: 5.75 µM
UACC-257 melanoma
  GI50: 4.31 µM
  TGI: 8.05 µM
UACC-62 melanoma
  GI50: 4.48 µM
  TGI: 9.4 µM
UO-31 renal
  GI50: 4.22 µM
  TGI: 9.43 µM
